The values that follow come from patent US20230132823A1, “BI-FUNCTIONAL COMPOUNDS AND METHODS FOR TARGETED UBIQUITINATION OF ANDROGEN RECEPTOR” (MONTELINO THERAPEUTICS, INC., priority 2020, published 2023).

Where a SMILES comes first, the peptide text is derived from it. [ ]: non-standard residue; d: D form. The star is where a group is joined. X4 = O=C(COc1c(-c2csc(N3CCOCC3)n2)ccc(F)c1F)NCCCCN*; Dip = N[C@H](C(=O)O)C(c1ccccc1)c1ccccc1; Chg = N[C@H](C(=O)O)C1CCCCC1; NMeA = CN[C@@H](C)C(=O)O

In the first test the test system is 22Rv1. Briefly: 22Rv1 cell proliferation assay (Experimental Example 1, cell count). Format: cell-based. The following applies: Homo sapiens, 22Rv1, read-out: 22Rv1 cell count decrease at 10 μM for 48 hours. How it is done:
The human prostate cancer cell line, 22Rv1 has been reported to express a high level of AR-V7. […] Standard culture media was RPMI-1640 supplemented with 10% fetal bovine serum. The test compound initially was dissolved in DMSO at 50 mM. This stock solution was then diluted as needed for the indicated concentrations. […]
In the Table: (+)—the cell count decreased between 0 and 20%; (++)—the cell count decreased […]; (+++)—the cell count decreased by more than 50%.
On to `CN[C@@H](C)C(=O)N[C@H](C(=O)N1CCC[C@H]1C(=O)N[C@H](C(=O)NCCCCNC(=O)COc1c(-c2csc(N3CCOCC3)n2)ccc(F)c1F)C(c1ccccc1)c1ccccc1)C1CCCCC1` [Example 25, (S)-1-((S)-2-cyclohexyl-2-((S)-2-(methylamino)propanamido)acetyl)-N-((S)-1-((4-(2-(2,3-difluoro-6-(2-morpholinothiazol-4-yl)phenoxy)acetamido)butyl)amino)-1-oxo-3,3-diphenylpropan-2-yl)pyrrolidine-2-carboxamide] (H-[NMeA][Chg]P[Dip]-X4), for which the inhibition at 10 µM is > 50%.

Still in this test, the particulars now being: Homo sapiens, 22Rv1, read-out: 22Rv1 cell count decrease at 10 μM for 48 hours; 10 μM (method: four days); read-out: 22Rv1 cell count decrease at 10 μM.
For `Cc1ncsc1-c1ccc([C@H](C)NC(=O)[C@@H]2C[C@@H](O)CN2C(=O)[C@@H](NC(=O)CCCCCNC(=O)COc2c(-c3csc(N4CCOCC4)n3)ccc(F)c2F)C(C)(C)C)cc1` [Example 17, (2S,4R)-1-((S)-2-(6-(2-(2,3-difluoro-6-(2-morpholinothiazol-4-yl)phenoxy)acetamido)hexanamido)-3,3-dimethylbutanoyl)-4-hydroxy-N-((S)-1-(4-(4-methylthiazol-5-yl)phenyl)ethyl)pyrrolidine-2-carboxamide], the inhibition at 10 µM was < 50%.

In the case of `O=C(COc1c(-c2csc(N3CCOCC3)n2)ccc(F)c1F)NCCOCCOCCNc1cccc2c1C(=O)N(C1CCC(=O)NC1=O)C2=O` (stereo not shown) [Example 4, 2-(2,3-difluoro-6-(2-morpholinothiazol-4-yl)phenoxy)-N-(2-(2-(2-((2-(2,6-dioxopiperidin-3-yl)-1,3-dioxoisoindolin-4-yl)amino)ethoxy)ethoxy)ethyl)acetamide], the inhibition at 10 µM was 0 to 20%.

`O=C(COc1c(-c2csc(N3CCOCC3)n2)ccc(F)c1F)NCCCCCCCCNc1cccc2c1C(=O)N(C1CCC(=O)NC1=O)C2=O` (stereo not shown) [Example 2, 2-(2,3-difluoro-6-(2-morpholinothiazol-4-yl)phenoxy)-N-(8-((2-(2,6-dioxopiperidin-3-yl)-1,3-dioxoisoindolin-4-yl)amino)octyl)acetamide]: the inhibition at 10 µM fell in the range of 0 to 20%.

Regarding `Cc1ncsc1-c1ccc([C@H](C)NC(=O)[C@@H]2C[C@@H](O)CN2C(=O)[C@@H](NC(=O)CCCCCCNC(=O)COc2c(-c3csc(N4CCOCC4)n3)ccc(F)c2F)C(C)(C)C)cc1` [Example 18, (2S,4R)-1-((S)-2-(7-(2-(2,3-difluoro-6-(2-morpholinothiazol-4-yl)phenoxy)acetamido)heptanamido)-3,3-dimethylbutanoyl)-4-hydroxy-N-((S)-1-(4-(4-methylthiazol-5-yl)phenyl)ethyl)pyrrolidine-2-carboxamide], the inhibition at 10 µM is < 50%.

Consider `O=C1CCC(N2C(=O)c3cccc(NCCCCCCNC(=O)c4nc(Br)n(-c5csc(N6CCOCC6)n5)c4Br)c3C2=O)C(=O)N1` (stereo not shown) [Example 33, 2,5-dibromo-N-(6-((2-(2,6-dioxopiperidin-3-yl)-1,3-dioxoisoindolin-4-yl)amino)hexyl)-1-(2-morpholinothiazol-4-yl)-1H-imidazole-4-carboxamide], for which the inhibition at 10 µM lay in the range of 0 to 20%.

Consider `O=C(COc1cccc2c1C(=O)N(C1CCC(=O)NC1=O)C2=O)NCCOCCOCCOCCNC(=O)COc1c(-c2csc(N3CCOCC3)n2)ccc(F)c1F` (stereo not shown) [Example 11, 2-(2,3-difluoro-6-(2-morpholinothiazol-4-yl)phenoxy)-N-(1-((2-(2,6-dioxopiperidin-3-yl)-1,3-dioxoisoindolin-4-yl)oxy)-2-oxo-6,9,12-trioxa-3-azatetradecan-14-yl)acetamide], for which the inhibition at 10 µM lay within 0 to 20%.

For `O=C(COc1cccc2c1C(=O)N(C1CCC(=O)NC1=O)C2=O)NCCOCCOCCOCCOCCOc1c(-c2csc(N3CCOCC3)n2)ccc(F)c1F` (stereo not shown) [Example 14, N-(14-(2,3-difluoro-6-(2-morpholinothiazol-4-yl)phenoxy)-3,6,9,12-tetraoxatetradecyl)-2-((2-(2,6-dioxopiperidin-3-yl)-1,3-dioxoisoindolin-4-yl)oxy)acetamide], the inhibition at 10 µM fell in the range of 0 to 20%.

On to `O=C(COc1c(-c2csc(N3CCOCC3)n2)ccc(F)c1F)NCCOCCOCCOCCNc1cccc2c1C(=O)N(C1CCC(=O)NC1=O)C2=O` (stereo not shown) [Example 5, 2-(2,3-difluoro-6-(2-morpholinothiazol-4-yl)phenoxy)-N-(2-(2-(2-(2-((2-(2,6-dioxopiperidin-3-yl)-1,3-dioxoisoindolin-4-yl)amino)ethoxy)ethoxy)ethoxy)ethyl)acetamide], for which the inhibition at 10 µM lay within 0 to 20%.

Regarding `COc1cc(C(=O)NCCCCNC(=O)COc2c(-c3csc(N4CCOCC4)n3)ccc(F)c2F)ccc1NC(=O)[C@@H]1N[C@@H](CC(C)(C)C)[C@](C#N)(c2ccc(Cl)cc2F)[C@H]1c1cccc(Cl)c1F` [Example 28, (2R,3S,4R,5S)-3-(3-chloro-2-fluorophenyl)-4-(4-chloro-2-fluorophenyl)-4-cyano-N-(4-((4-(2-(2,3-difluoro-6-(2-morpholinothiazol-4-yl)phenoxy)acetamido)butyl)carbamoyl)-2-methoxyphenyl)-5-neopentylpyrrolidine-2-carboxamide], the inhibition at 10 µM was > 50%.

On to `COc1cc(C(=O)NCCOCCOCCOc2c(-c3csc(N4CCOCC4)n3)ccc(F)c2F)ccc1NC(=O)[C@@H]1N[C@@H](CC(C)(C)C)[C@](C#N)(c2ccc(Cl)cc2F)[C@H]1c1cccc(Cl)c1F` [Example 27, (2R,3S,4R,5S)-3-(3-chloro-2-fluorophenyl)-4-(4-chloro-2-fluorophenyl)-4-cyano-N-(4-((2-(2-(2-(2,3-difluoro-6-(2-morpholinothiazol-4-yl)phenoxy)ethoxy)ethoxy)ethyl)carbamoyl)-2-methoxyphenyl)-5-neopentylpyrrolidine-2-carboxamide], for which the inhibition at 10 µM was > 50%.

Consider `Cc1ncsc1-c1ccc([C@H](C)NC(=O)[C@@H]2C[C@@H](O)CN2C(=O)[C@@H](NC(=O)CCCNC(=O)COc2c(-c3csc(N4CCOCC4)n3)ccc(F)c2F)C(C)(C)C)cc1` [Example 15, (2S,4R)-1-((S)-2-(4-(2-(2,3-difluoro-6-(2-morpholinothiazol-4-yl)phenoxy)acetamido)butanamido)-3,3-dimethylbutanoyl)-4-hydroxy-N-((S)-1-(4-(4-methylthiazol-5-yl)phenyl)ethyl)pyrrolidine-2-carboxamide], for which the inhibition at 10 µM was < 50%.

As for `COc1cc(C(=O)NCCCCCCNC(=O)COc2c(-c3csc(N4CCOCC4)n3)ccc(F)c2F)ccc1NC(=O)[C@@H]1N[C@@H](CC(C)(C)C)[C@](C#N)(c2ccc(Cl)cc2F)[C@H]1c1cccc(Cl)c1F` [Example 29, (2R,3S,4R,5S)-3-(3-chloro-2-fluorophenyl)-4-(4-chloro-2-fluorophenyl)-4-cyano-N-(4-((6-(2-(2,3-difluoro-6-(2-morpholinothiazol-4-yl)phenoxy)acetamido)hexyl)carbamoyl)-2-methoxyphenyl)-5-neopentylpyrrolidine-2-carboxamide], the inhibition at 10 µM is < 50%.

As to `O=C(COc1cccc2c1C(=O)N(C1CCC(=O)NC1=O)C2=O)NCCCCCCCCCCNC(=O)COc1c(-c2csc(N3CCOCC3)n2)ccc(F)c1F` (stereo not shown) [Example 9, 2-(2,3-difluoro-6-(2-morpholinothiazol-4-yl)phenoxy)-N-(10-(2-((2-(2,6-dioxopiperidin-3-yl)-1,3-dioxoisoindolin-4-yl)oxy)acetamido)decyl)acetamide], the inhibition at 10 µM lay within 0 to 20%.

As to `O=C1CCC(N2C(=O)c3cccc(NCCOCCOCCOc4c(-c5csc(N6CCOCC6)n5)ccc(F)c4F)c3C2=O)C(=O)N1` (stereo not shown) [Example 12, 4-((2-(2-(2-(2,3-difluoro-6-(2-morpholinothiazol-4-yl)phenoxy)ethoxy)ethoxy)ethyl)amino)-2-(2,6-dioxopiperidin-3-yl)isoindoline-1,3-dione], the inhibition at 10 µM was in the range of 0 to 20%.

With `O=C(COc1cccc2c1C(=O)N(C1CCC(=O)NC1=O)C2=O)NCCCCCCNC(=O)COc1c(-c2csc(N3CCOCC3)n2)ccc(F)c1F` (stereo not shown) [Example 7, 2-(2,3-difluoro-6-(2-morpholinothiazol-4-yl)phenoxy)-N-(6-(2-((2-(2,6-dioxopiperidin-3-yl)-1,3-dioxoisoindolin-4-yl)oxy)acetamido)hexyl)acetamide], the inhibition at 10 µM was 0 to 20%.

For `Cc1ncsc1-c1ccc([C@H](CC(=O)NCCCCCCNC(=O)COc2c(-c3csc(N4CCOCC4)n3)ccc(F)c2F)NC(=O)[C@@H]2C[C@@H](O)CN2C(=O)[C@@H](NC(=O)C2(F)CC2)C(C)(C)C)cc1` [Example 23, (2S,4R)-N-((S)-3-((6-(2-(2,3-difluoro-6-(2-morpholinothiazol-4-yl)phenoxy)acetamido)hexyl)amino)-1-(4-(4-methylthiazol-5-yl)phenyl)-3-oxopropyl)-1-((S)-2-(1-fluorocyclopropane-1-carboxamido)-3,3-dimethylbutanoyl)-4-hydroxypyrrolidine-2-carboxamide], the inhibition at 10 µM fell in the range of 0 to 20%.

Regarding `Cc1ncsc1-c1ccc([C@H](C)NC(=O)[C@@H]2C[C@@H](O)CN2C(=O)[C@@H](NC(=O)CCCCNC(=O)c2cccc3sc(N4CCOCC4)nc23)C(C)(C)C)cc1` [Example 30, N-(5-(((S)-1-((2S,4R)-4-hydroxy-2-(((S)-1-(4-(4-methylthiazol-5-yl)phenyl)ethyl)carbamoyl)pyrrolidin-1-yl)-3,3-dimethyl-1-oxobutan-2-yl)amino)-5-oxopentyl)-2-morpholinobenzo[d]thiazole-4-carboxamide], the inhibition at 10 µM was < 50%.

For the molecule `O=C1CCC(N2C(=O)c3cccc(NCCOCCOCCOCCOc4c(-c5csc(N6CCOCC6)n5)ccc(F)c4F)c3C2=O)C(=O)N1` (stereo not shown) [Example 13, 4-((2-(2-(2-(2-(2,3-difluoro-6-(2-morpholinothiazol-4-yl)phenoxy)ethoxy)ethoxy)ethoxy)ethyl)amino)-2-(2,6-dioxopiperidin-3-yl)isoindoline-1,3-dione], the inhibition at 10 µM was in the range of 0 to 20%.
